From patent publication US4666902A, “Tetrahydropyridazinone derivatives, processes for their preparation and their use” (Cassella Aktiengesellschaft, priority 1983, dated 1987)

How the values were obtained:
[1] = test system: action of arachidonic acid; assay: Influence on the action of arachidonic acid in vivo under anesthesia (Lefort and Vargaftig); design: species or system guinea pig; key: -: no action; (+): weak; +: medium; ++: strong; +++: very strong
Experimental: The values of Table 2 showing the influence on the action of arachidonic acid were determined in guinea pigs under anesthesia using the Lefort and Vargaftig method (Br. J. Pharmac. 63, 35 (1978)).
Influence on the action of arachidonic acid (arachidonic acid
500 g/kg i.v.) in vivo in guinea pigs under anesthesia

[2] = test system: thrombocyte aggregation induced by arachidonic acid; assay: Inhibition of thrombocyte aggregation in vitro (Born), arachidonic acid; format: cell-based; settings: induced by 0.36 mM of arachidonic acid
Experimental: The values of tables 3 to 5 showing the inhibition of the thrombocytic aggregation were determined in vitro according to the Born method (J. Physiol. 162 67 P (1962)) using arachidonic acid, thrombin or adenosine diphosphate as aggregation agent.
Inhibition of thrombocyte aggregation in vitro (according to BORN)
induced by 0.36 mM of arachidonic acid

[3] = test system: experimental thrombosis, venous; assay: Venous thrombotic protection, experimental thrombosis in vivo (Harbauer)
Experimental: (§1) The values of the arterial thrombotic protection given in table 1 were determined in rats according to the method of Meng and Seuter (Naunyn-Schmiedeberg's Arch. Pharmacol. 301, 115 (1977)), those of the venous thrombotic protection were determined in rabbits according to the Harbauer method ("Versuche zur Entwicklung eines standardisierten venosen Thrombosemodells am Kaninchen" ("Tests for developing a standardized venous thrombotic model in rabbits"), 17th Angiologic Symposium, Kitzbuhel (1982)).
(§2) Influence on the experimental thrombosis in vivo

[4] = test system: experimental thrombosis, arterial; assay: Arterial thrombotic protection, experimental thrombosis in vivo (Meng and Seuter)
Experimental: as §1, §2

SMILES	PGI2 Effect: Lowering of blood pressure ([1]; 1-10 mg/kg i.v.)	TXA2 Effect: Bronchospasm ([1]; 1-10 mg/kg i.v.)	TXA2 Effect: Thrombocytopenia ([1]; 1-10 mg/kg i.v.)	other results
Cc1cc(COc2ccc(C3=NNC(=O)CC3CO)cc2)[nH]c(=O)c1 (centres unmarked)	-	(+)	(+)	
O=C1CC(CO)C(c2ccco2)=NN1 (centres unmarked)	-	(+)	(+)	
Cc1cc(COc2ccc(C3=NN(C)C(=O)CC3CO)cc2)[nH]c(=O)c1 (centres unmarked)				IC50 [2]: 15 µM
COc1ccc(C2=NN(C)C(=O)CC2CO)cc1OC (centres unmarked)				IC50 [2]: 40 µM
COc1cc(C2=NNC(=O)CC2CO)cc(OC)c1OC (centres unmarked)				IC50 [2]: 6 µM
O=C1CC(CO)C(c2ccc(Cl)cc2)=NN1 (centres unmarked) [drawing 44]				Thrombotic Protection % venous (rabbit) ([3]; 10 mg/kg i.p.): 57%
Cc1nnc(COc2ccc(C3=NNC(=O)CC3CO)cc2)o1 (centres unmarked) [drawing 45]				Thrombotic Protection % venous (rabbit) ([3]; 10 mg/kg i.p.): 50%
CC(=O)Nc1ccc(C2=NNC(=O)CC2CO)cc1 (centres unmarked) [drawing 46]				Thrombotic Protection % venous (rabbit) ([3]; 0.3 mg/kg i.p.): 60%; Thrombotic Protection % venous (rabbit) ([3]; 1 mg/kg i.p.): 78%; Thrombotic Protection % arterial (rat) ([4]; 0.3 mg/kg i.p.): 30%; Thrombotic Protection % arterial (rat) ([4]; 1 mg/kg i.p.): 80%
O=C1CC(CO)C(c2ccc(OCCn3ccnc3)cc2)=NN1 (centres unmarked) [drawing 47]				Thrombotic Protection % venous (rabbit) ([3]; 3 mg/kg i.p.): 57%; Thrombotic Protection % venous (rabbit) ([3]; 10 mg/kg i.p.): 86%
O=C1CC(CO)C(c2ccc(N3CCCC3=O)cc2)=NN1 (centres unmarked) [drawing 48]				Thrombotic Protection % venous (rabbit) ([3]; 10 mg/kg i.p.): 83%
O=C1CC(CO)C(c2ccc[nH]2)=NN1 (centres unmarked) [drawing 50]				Thrombotic Protection % arterial (rat) ([4]; 1 mg/kg i.p.): 42%
O=C1CC(CO)C(c2ccccc2)=NN1 (centres unmarked) [drawing 53]	(+)	(+)	-	
Cc1ccc(C2=NNC(=O)CC2CO)cc1 (centres unmarked) [drawing 54]	(+)	(+)	(+)	
COc1ccc(C2=NNC(=O)CC2CO)cc1 (centres unmarked) [drawing 55]	++	(+)	-	
O=C1CC(CO)C(c2ccc(Cl)cc2)=NN1 (centres unmarked) [drawing 56]	(+)	(+)	(+)	
O=C1CC(CO)C(c2cccc([N+](=O)[O-])c2)=NN1 (centres unmarked) [drawing 57]	(+ )	++	+	
Cc1nnc(COc2ccc(C3=NNC(=O)CC3CO)cc2)o1 (centres unmarked) [drawing 58]	+	++	++	
COc1ccc(C2=NNC(=O)CC2COC(=O)c2cccnc2)cc1OC (centres unmarked) [drawing 59]	-	(+)	(+)	
CC(=O)Nc1ccc(C2=NN(C)C(=O)CC2CO)cc1 (centres unmarked) [drawing 61]	(+)	(+)	(+)	
O=C1CC(CO)C(c2ccc(N3CCCC3=O)cc2)=NN1 (centres unmarked) [drawing 62]				PGI2 Effect: Lowering of blood pressure ([1]; 0.3-3 mg/kg i.v.): +; TXA2 Effect: Bronchospasm ([1]; 0.3-3 mg/kg i.v.): +; TXA2 Effect: Thrombocytopenia ([1]; 0.3-3 mg/kg i.v.): ++
O=C1CC(CO)C(c2ccc[nH]2)=NN1 (centres unmarked) [drawing 63]	(+)	++	+++	
CC(=O)Nc1ccc(C2=NNC(=O)CC2CO)cc1 (centres unmarked) [drawing 65]				PGI2 Effect: Lowering of blood pressure ([1]; 0.1-1 mg/kg i.v.): ++; TXA2 Effect: Bronchospasm ([1]; 0.1-1 mg/kg i.v.): ++; TXA2 Effect: Thrombocytopenia ([1]; 0.1-1 mg/kg i.v.): ++
O=C1CC(CO)C(c2ccc(OCCn3ccnc3)cc2)=NN1 (centres unmarked) [drawing 66]	(+)	+	++	
O=C1CC(CO)C(c2cccs2)=NN1 (centres unmarked) [drawing 68]				PGI2 Effect: Lowering of blood pressure ([1]; 3-10 mg/kg i.v.): (+); TXA2 Effect: Bronchospasm ([1]; 3-10 mg/kg i.v.): (+); TXA2 Effect: Thrombocytopenia ([1]; 3-10 mg/kg i.v.): (+)
COc1ccc(C2=NNC(=O)CC2CO)cc1OC (centres unmarked) [drawing 69]				PGI2 Effect: Lowering of blood pressure ([1]; 0.3-3 mg/kg i.v.): +++; TXA2 Effect: Bronchospasm ([1]; 0.3-3 mg/kg i.v.): ++; TXA2 Effect: Thrombocytopenia ([1]; 0.3-3 mg/kg i.v.): ++
O=C1CC(CO)C(c2c[nH]c3ccccc23)=NN1 (centres unmarked) [drawing 70]	(+)	+	+++	
COc1ccc(C2=NNC(=O)CC2COC(=O)COc2ccc(Cl)cc2)cc1OC (centres unmarked) [drawing 71]	+	(+)	-	
O=C1CC(CO)C(c2ccc(OCc3cccnc3)cc2)=NN1 (centres unmarked) [drawing 73]	-	+	+	
O=C1CC(CO)C(c2ccccc2)=NN1 (centres unmarked) [drawing 75]				IC50 [2]: 5 µM
